For the assay, the target named is T1, Recombinant Human Histamine H4 Receptor (Homo sapiens, UniProt Q9H3N8).
T1 construct: expressed in transfected cells; host or cells: SK-N-MC cells or COS7 cells, transiently transfected; cell membranes used
T1 sequence (Q9H3N8 whole entry): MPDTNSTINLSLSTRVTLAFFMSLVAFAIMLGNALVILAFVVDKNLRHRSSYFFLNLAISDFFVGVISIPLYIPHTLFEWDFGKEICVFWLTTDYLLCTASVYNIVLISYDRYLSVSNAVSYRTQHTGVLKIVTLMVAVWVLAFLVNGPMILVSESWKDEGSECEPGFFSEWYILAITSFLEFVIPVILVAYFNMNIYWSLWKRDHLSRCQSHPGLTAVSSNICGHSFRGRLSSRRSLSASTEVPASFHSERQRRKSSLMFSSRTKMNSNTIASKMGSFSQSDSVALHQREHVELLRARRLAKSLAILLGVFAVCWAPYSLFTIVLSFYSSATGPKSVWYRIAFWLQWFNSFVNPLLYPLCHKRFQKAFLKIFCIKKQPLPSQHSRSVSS
In words: Binding Assay on Recombinant Human Histamine H4 Receptor. To be noted: competition binding with 3H-histamine, membranes of SK-N-MC or COS7 cells expressing human histamine H4 receptor; Ki by Cheng-Prusoff (KD 5 nM, ligand 5 nM); average of results obtained. The text has this:
Additional examples of embodiments of this invention are provided by hemitartrate salts of compounds of Formula (I) and by hydrates, such as monohydrates and dihydrates, of compounds of Formula (I). […]
In general, Ki refers to a dissociation constant, usually derived from enzyme kinetics or from competition with a known ligand. As to `Cc1nc(NCCCC2CCN(C)CC2)ncc1-c1nc2cc(C(C)(C)C)ccc2[nH]1` [Example 25, [5-(5-tert-Butyl-1H-benzoimidazol-2-yl)-4-methyl-pyrimidin-2-yl]-[3-(1-methyl-piperidin-4-yl)-propyl]-amine], the Ki was 13 nM.

As for `Cc1nc(NCCCC2CCN(C)CC2)ncc1-c1nc2cc(Cl)c(F)cc2[nH]1` [Example 39, [5-(5-Chloro-6-fluoro-1H-benzoimidazol-2-yl)-4-methyl-pyrimidin-2-yl]-[3-(1-methyl-piperidin-4-yl)-propyl]-amine], the Ki came out at 15 nM.

With `Cc1cc(C)c2nc(-c3cnc(N(C)CCCC4CCN(C)CC4)nc3C)[nH]c2c1` [Example 7, [5-(4,6-Dimethyl-1H-benzoimidazol-2-yl)-4-methyl-pyrimidin-2-yl]-methyl-[3-(1-methyl-piperidin-4-yl)-propyl]-amine], the Ki was found to be 83 nM.

Consider `CCc1nc(NCCCC2CCN(C)CC2)ncc1-c1nc2c(F)c(F)ccc2[nH]1` [Example 9, [5-(4,5-Difluoro-1H-benzoimidazol-2-yl)-4-ethyl-pyrimidin-2-yl]-[3-(1-methyl-piperidin-4-yl)-propyl]-amine], for which the Ki amounted to 210 nM.

Regarding `CN1CCC(CCCNc2ncc(-c3nc4cc(F)c(F)cc4[nH]3)c(C(F)(F)F)n2)CC1` [Example 31, [5-(5,6-Difluoro-1H-benzoimidazol-2-yl)-4-trifluoromethyl-pyrimidin-2-yl]-[3-(1-methyl-piperidin-4-yl)-propyl]-amine], the Ki amounted to 230 nM.

Take `Cc1c(F)ccc2[nH]c(-c3cnc(NCCCC4CCN(C)CC4)nc3)nc12` [Example 15, [5-(5-Fluoro-4-methyl-1H-benzoimidazol-2-yl)-pyrimidin-2-yl]-[3-(1-methyl-piperidin-4-yl)-propyl]-amine]: the Ki was 290 nM.

In the case of `CCCc1nc(NCCCC2CCN(C)CC2)ncc1-c1nc2c(F)c(C)ccc2[nH]1` [Example 10, [5-(4-Fluoro-5-methyl-1H-benzoimidazol-2-yl)-4-propyl-pyrimidin-2-yl]-[3-(1-methyl-piperidin-4-yl)-propyl]-amine], the Ki is 470 nM.

As for `CN1CCC(CCCNc2ncc(-c3nc4c(Cl)cc(Cl)cc4[nH]3)c(C(F)(F)F)n2)CC1` [Example 29, [5-(4,6-Dichloro-1H-benzoimidazol-2-yl)-4-trifluoromethyl-pyrimidin-2-yl]-[3-(1-methyl-piperidin-4-yl)-propyl]-amine], the Ki was 35 nM.

With `Cc1ccc2[nH]c(-c3cnc(NCCCC4CCN(C)CC4)nc3C(F)(F)F)nc2c1C` [Example 30, [5-(4,5-Dimethyl-1H-benzoimidazol-2-yl)-4-trifluoromethyl-pyrimidin-2-yl]-[3-(1-methyl-piperidin-4-yl)-propyl]-amine], the inhibition constant Ki is 230 nM.

For `Cc1nc(NCCCC2CCN(C)CC2)ncc1-c1nc2cc(Cl)ccc2[nH]1` [Example 40, [5-(5-Chloro-1H-benzoimidazol-2-yl)-4-methyl-pyrimidin-2-yl]-[3-(1-methyl-piperidin-4-yl)-propyl]-amine], the Ki came to 7 nM.

`Cc1nc(NCCCC2CCN(C)CC2)ncc1-c1nc2cc(C#N)ccc2[nH]1` [Example 36, 2-{4-Methyl-2-[3-(1-methyl-piperidin-4-yl)-propylamino]-pyrimidin-5-yl}-1H-benzoimidazole-5-carbonitrile]: the Ki is 170 nM.

On to `Cc1cc(F)cc2[nH]c(-c3cnc(NCCCC4CCN(C)CC4)nc3C(F)(F)F)nc12` [Example 28, [5-(6-Fluoro-4-methyl-1H-benzoimidazol-2-yl)-4-trifluoromethyl-pyrimidin-2-yl]-[3-(1-methyl-piperidin-4-yl)-propyl]-amine], for which the Ki stood at 62 nM.

Regarding `Cc1cc(C)c2nc(-c3cnc(NCCCC4CCN(C)CC4)nc3C)[nH]c2c1` [Example 2, [5-(4,6-Dimethyl-1H-benzoimidazol-2-yl)-4-methyl-pyrimidin-2-yl]-[3-(1-methyl-piperidin-4-yl)-propyl]-amine], the Ki amounted to 11 nM.

Regarding `CN1CCC(CCCNc2ncc(-c3nc4c(F)c(F)ccc4[nH]3)c(C3CCC3)n2)CC1` [Example 14, [4-Cyclobutyl-5-(4,5-difluoro-1H-benzoimidazol-2-yl)-pyrimidin-2-yl]-[3-(1-methyl-piperidin-4-yl)-propyl]-amine], the Ki came to 1010 nM.

Consider `Cc1c(F)ccc2[nH]c(-c3cnc(NCCCC4CCN(C)CC4)cn3)nc12` [Example 33, [5-(5-Fluoro-4-methyl-1H-benzoimidazol-2-yl)-pyrazin-2-yl]-[3-(1-methyl-piperidin-4-yl)-propyl]-amine], for which the Ki was 250 nM.

In the case of `Cc1c(F)ccc2[nH]c(-c3cnc(NCCCC4CCN(C)CC4)nc3C3CCC3)nc12` [Example 16, [4-Cyclobutyl-5-(5-fluoro-4-methyl-1H-benzoimidazol-2-yl)-pyrimidin-2-yl]-[3-(1-methyl-piperidin-4-yl)-propyl]-amine], the Ki stood at 1470 nM.

Regarding `Cc1cccc2[nH]c(-c3cnc(NCCCC4CCN(C)CC4)nc3C3CC3)nc12` [Example 44, [4-Cyclopropyl-5-(4-methyl-1H-benzoimidazol-2-yl)-pyrimidin-2-yl]-[3-(1-methyl-piperidin-4-yl)-propyl]-amine], the Ki was determined as 560 nM.

For the compound `CCc1nc(NCCCC2CCN(C)CC2)ncc1-c1nc2c(C)cc(C)cc2[nH]1` [Example 42, [5-(4,6-Dimethyl-1H-benzoimidazol-2-yl)-4-ethyl-pyrimidin-2-yl]-[3-(1-methyl-piperidin-4-yl)-propyl]-amine], the Ki is 22 nM.

For the compound `CC(C)c1nc(NCCCC2CCN(C)CC2)ncc1-c1nc2c(F)c(F)ccc2[nH]1` [Example 32, [5-(4,5-Difluoro-1H-benzoimidazol-2-yl)-4-isopropyl-pyrimidin-2-yl]-[3-(1-methyl-piperidin-4-yl)-propyl]-amine], the Ki came out at 6110 nM.

As to `Cc1nc(NCCCC2CCN(C)CC2)ncc1-c1nc2c(C)cccc2[nH]1` [Example 21, [4-Methyl-5-(4-methyl-1H-benzoimidazol-2-yl)-pyrimidin-2-yl]-[3-(1-methyl-piperidin-4-yl)-propyl]-amine], the Ki was 27 nM.

For `Cc1nc(NCCCC2CCN(C)CC2)ncc1-c1nc2c(Cl)cc(C(F)(F)F)cc2[nH]1` [Example 38, [5-(4-Chloro-6-trifluoromethyl-1H-benzoimidazol-2-yl)-4-methyl-pyrimidin-2-yl]-[3-(1-methyl-piperidin-4-yl)-propyl]-amine], the inhibition constant Ki came to 2 nM.

For the compound `Cc1ccc2[nH]c(-c3cnc(NCCCC4CCN(C)CC4)nc3C)nc2c1C` [Example 5, [5-(4,5-Dimethyl-1H-benzoimidazol-2-yl)-4-methyl-pyrimidin-2-yl]-[3-(1-methyl-piperidin-4-yl)-propyl]-amine], the Ki amounted to 4 nM.

`Cc1ccc2[nH]c(-c3cnc(NCCCC4CCN(C)CC4)cn3)nc2c1C` [Example 34, [5-(4,5-Dimethyl-1H-benzoimidazol-2-yl)-pyrazin-2-yl]-[3-(1-methyl-piperidin-4-yl)-propyl]-amine]: the Ki was found to be 680 nM.

On to `Cc1c(F)ccc2[nH]c(-c3cnc(NCCCC4CCN(C)CC4)nc3C(F)(F)F)nc12` [Example 27, [5-(5-Fluoro-4-methyl-1H-benzoimidazol-2-yl)-4-trifluoromethyl-pyrimidin-2-yl]-[3-(1-methyl-piperidin-4-yl)-propyl]-amine], for which the Ki worked out at 92 nM.

`Cc1ccc2[nH]c(-c3cnc(NCCCC4CCN(C)CC4)nc3C3CCC3)nc2c1C` [Example 13, [4-Cyclobutyl-5-(4,5-dimethyl-1H-benzoimidazol-2-yl)-pyrimidin-2-yl]-[3-(1-methyl-piperidin-4-yl)-propyl]-amine]: the Ki came to 430 nM.

With `Cc1nc(NCCCC2CCN(C)CC2)ncc1-c1nc2ccccc2[nH]1` [Example 22, [5-(1H-Benzoimidazol-2-yl)-4-methyl-pyrimidin-2-yl]-[3-(1-methyl-piperidin-4-yl)-propyl]-amine], the Ki turned out to be 110 nM.

In the case of `Cc1cc(C)c2nc(-c3cnc(NCCCC4CCN(C)CC4)nc3C3CC3)[nH]c2c1` [Example 47, [4-Cyclopropyl-5-(4,6-dimethyl-1H-benzoimidazol-2-yl)-pyrimidin-2-yl]-[3-(1-methyl-piperidin-4-yl)-propyl]-amine], the Ki was found to be 99 nM.

With `Cc1ccc2[nH]c(-c3cnc(NCCCC4CCN(C)CC4)nc3C(C)C)nc2c1C` [Example 11, [5-(4,5-Dimethyl-1H-benzoimidazol-2-yl)-4-isopropyl-pyrimidin-2-yl]-[3-(1-methyl-piperidin-4-yl)-propyl]-amine], the Ki amounted to 360 nM.

For `Cc1nc(NCCCC2CCN(C)CC2)ncc1-c1nc2c(C)c(F)ccc2[nH]1` [Example 1, [5-(5-Fluoro-4-methyl-1H-benzoimidazol-2-yl)-4-methyl-pyrimidin-2-yl]-[3-(1-methyl-piperidin-4-yl)-propyl]-amine], the Ki was determined as 21 nM.

Take `Cc1cc(F)cc2[nH]c(-c3cnc(NCCCC4CCN(C)CC4)nc3C3CC3)nc12` [Example 46, [4-Cyclopropyl-5-(6-fluoro-4-methyl-1H-benzoimidazol-2-yl)-pyrimidin-2-yl]-[3-(1-methyl-piperidin-4-yl)-propyl]-amine]: the Ki came out at 230 nM.

Regarding “[5-(4,5-Dimethyl-1H-benzoimidazol-2-yl)-4-ethyl-pyrimidin-2-yl]-methyl-[3-(1-methyl-piperidin-4-yl)-propyl]-amine [Example 8]”, the Ki amounted to 29 nM.

As to `Cc1nc(NCCCC2CCN(C)CC2)ncc1-c1nc2cc(Cl)c(Cl)cc2[nH]1` [Example 41, [5-(5,6-Dichloro-1H-benzoimidazol-2-yl)-4-methyl-pyrimidin-2-yl]-[3-(1-methyl-piperidin-4-yl)-propyl]-amine], the Ki stood at 6 nM.

As to `Cc1nc(NCCCC2CCN(C)CC2)ncc1-c1nc2c(C(F)(F)F)cc(C(F)(F)F)cc2[nH]1` [Example 35, [5-(4,6-Bis-trifluoromethyl-1H-benzoimidazol-2-yl)-4-methyl-pyrimidin-2-yl]-[3-(1-methyl-piperidin-4-yl)-propyl]-amine], the Ki is 11 nM.
